Usually IC50 stands for the concentration needed to halve the response being measured.

Marks after values point to notes of the source that are not given here.

Assay [1] addresses amyloid-beta in human Alzheimer disease brain homogenate (Homo sapiens, UniProt P05067). Description: Binding affinity to amyloid-beta in AD brain homogenate (3H-PIB competition). Also noted: key to Low affinity to amyloid-beta (IC50 in AD brain homogenate), grade: − poor; ∘ moderate; + good; ++ very good; +++ excellent. As to conditions: non-radioactive fluorine-19 derivatives; for IC50: human AD brain homogenate. On the procedure: Determination of the Binding Affinity to Amyloid-Beta in AD Brain Homogenate 20 μg of human Alzheimer disease brain homogenate was incubated with a dilution series of each test compound (1000 to 0.06 nM) in the presence of 700 Bq of ^3H-labeled beta-amyloid binder PIB. The samples were shaken at 110 rpm for 60 min at 37° C. Samples were then filtered through GF/B 96 well filter plates and washed twice with 200 μL assay buffer (PBS containing 0.1% BSA and 2% DMSO). Thereafter, 40 μL Szintillation cocktail was added and the filter plates were sealed. The counts were then counted using a TopCount (Perkin Elmer). Non-specific signal was determined with samples containing ^3H-labeled beta-amyloid binder in the presence of assay buffer without brain substrate and competitor. Specific binding was calculated by subtracting the non-specific signal from the measured samples signal. The unblocked ^3H-labeled beta-amyloid binder signal was defined as total binding. IC50 values were calculated by Prism V7 (GraphPad) setting total binding to 100%.

The target in another assay is T1, MAO-A (Mus musculus, UniProt Q64133).
T1 construct: 20 μg of mouse whole brain or human brain homogenate; from tissue; host or cells: mouse whole brain homogenate
T1 sequence (Q64133 1-526): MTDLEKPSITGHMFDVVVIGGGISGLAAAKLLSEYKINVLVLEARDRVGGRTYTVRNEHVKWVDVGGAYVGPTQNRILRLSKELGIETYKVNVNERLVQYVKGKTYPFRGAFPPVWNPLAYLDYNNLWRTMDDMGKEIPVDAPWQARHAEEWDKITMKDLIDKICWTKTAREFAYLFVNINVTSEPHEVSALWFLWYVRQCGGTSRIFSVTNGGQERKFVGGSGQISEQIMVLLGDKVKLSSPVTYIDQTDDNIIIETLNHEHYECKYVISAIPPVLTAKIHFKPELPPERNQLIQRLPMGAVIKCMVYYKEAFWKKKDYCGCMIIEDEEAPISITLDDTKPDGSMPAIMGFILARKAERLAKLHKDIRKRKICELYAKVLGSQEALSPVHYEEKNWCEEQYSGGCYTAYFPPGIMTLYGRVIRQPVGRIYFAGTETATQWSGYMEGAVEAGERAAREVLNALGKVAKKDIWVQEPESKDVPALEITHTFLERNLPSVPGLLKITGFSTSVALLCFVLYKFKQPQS
Briefly: Binding affinity to MAO-A in mouse whole brain homogenate (3H-Harmine competition). Also noted: key to Low affinity to MAO A (IC50 in mouse brain homogenate), grade: − poor; ∘ moderate; + good; ++ very good; +++ excellent. As to conditions: for IC50: 3H-Harmine competition. As to the method:
Determination of the Binding Affinity to MAO-A in HC Brain Homogenate
(§1) 20 μg of mouse whole brain or human brain homogenate (without AD pathology, HC) was incubated with a dilution series of each test compound (1000 to 0.06 nM) in the presence of 700 Bq of ^3H-labeled MAO-A binder Harmine. The samples were shaken at 110 rpm for 60 min at 37° C. Samples were then filtered through GF/B 96 well filter plates and washed twice with 200 μL assay buffer (PBS containing 0.1% BSA and 2% DMSO). Thereafter, 40 μL Szintillation cocktail was added and the filter plates were sealed. The counts were then counted using a TopCount (Perkin Elmer). Non-specific signal was determined with samples containing ^3H-Harmine in the presence of assay buffer without brain substrate and competitor. Specific binding was calculated by subtracting the non-specific signal from the measured samples signal. The unblocked ^3H-Harmine signal was defined as total binding. IC50 values were calculated by Prism V7 (GraphPad) setting total binding to 100%.

For a further assay, the target named is T2, MAO-B (Homo sapiens, UniProt P27338).
T2 construct: 20 μg of human brain homogenate (without AD pathology); from tissue; host or cells: human brain homogenate without AD pathology
T2 sequence (P27338 1-520): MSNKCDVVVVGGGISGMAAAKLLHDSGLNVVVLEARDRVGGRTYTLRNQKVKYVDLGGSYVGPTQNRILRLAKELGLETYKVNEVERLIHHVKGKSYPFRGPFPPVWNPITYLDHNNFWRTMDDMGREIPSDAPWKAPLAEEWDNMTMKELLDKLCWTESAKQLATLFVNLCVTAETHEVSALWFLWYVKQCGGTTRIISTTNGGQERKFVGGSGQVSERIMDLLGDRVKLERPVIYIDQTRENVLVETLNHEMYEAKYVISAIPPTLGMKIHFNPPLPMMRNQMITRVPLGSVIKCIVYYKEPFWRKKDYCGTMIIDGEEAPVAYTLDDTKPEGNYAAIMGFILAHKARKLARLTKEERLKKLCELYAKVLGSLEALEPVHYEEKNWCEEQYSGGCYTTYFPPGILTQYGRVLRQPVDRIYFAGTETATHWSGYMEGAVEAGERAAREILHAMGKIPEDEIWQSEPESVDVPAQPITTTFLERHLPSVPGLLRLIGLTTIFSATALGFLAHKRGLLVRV
Description: Binding affinity to MAO-B in human HC brain homogenate (3H-deprenyl competition). Further details: key to Low affinity to MAO B (IC50 in human HC brain homogenate), grade: − poor; ∘ moderate; + good; ++ very good; +++ excellent. As to conditions: for IC50: 3H-deprenyl competition. On the procedure: Determination of the Binding Affinity to MAO-B in HC Brain Homogenate
as §1, with “of” for “of mouse whole brain or”, “pathology)” for “pathology, HC)”, “MAO-B” for “MAO-A”, “Deprenyl.” for “Harmine.”, “^3H-deprenyl” for “^3H-Harmine”

Sequence of amyloid-beta in human Alzheimer disease brain homogenate (P05067 672-711 limits assumed): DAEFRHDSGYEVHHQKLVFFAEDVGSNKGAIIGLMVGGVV

For the compound `Fc1ccc(-c2ccc3c(c2)[nH]c2ccncc23)cn1` [F-1, reference compound], the IC50 in assay [1] is more than 1000 nM; on MAO-A (mouse brain homogenate), 4.6 nM; on MAO-B (human HC brain homogenate) it was 78 nM.

Turning to `Fc1cc(-c2ccc3c(c2)[nH]c2ccncc23)ccn1` [F-2], the values for the half-inhibitory concentration (IC50) (in assay [1]; at MAO-A (mouse brain homogenate); at MAO-B (human HC brain homogenate)) were more than 1000 nM, 51.4 nM and 778 nM, respectively.

In the case of `[18F]c1ccc(-c2ccc3c(c2)[nH]c2ccncc23)cn1` [^18F-1, reference compound], the IC50 is more than 1000 nM in assay [1], 4.6 nM at MAO-A (mouse brain homogenate) and 78 nM at MAO-B (human HC brain homogenate).

Consider `[18F]c1cc(-c2ccc3c(c2)[nH]c2ccncc23)ccn1` [^18F-2], for which the “Low affinity to amyloid-beta (IC50 in AD brain homogenate), grade” value in assay [1] (AD brain homogenate) is “+++^a)”. In addition, in assay [1], the IC50 is more than 1000 nM. Besides, on MAO-A (mouse brain homogenate), the “Low affinity to MAO A (IC50 in mouse brain homogenate), grade” value was “∘” and the 50% inhibitory concentration (IC50) worked out at 51.4 nM. Besides, at MAO-A (ratio to 18F-1), the “fold higher IC50 than compound 18F-1, MAO A in whole mouse brain homogenate” value worked out at 11 fold. For the same compound, at MAO-B (human HC brain homogenate), the “Low affinity to MAO B (IC50 in human HC brain homogenate), grade” value was “++” and the IC50 stood at 778 nM. For the same compound, the “fold higher IC50 than compound 18F-1, MAO B in HC brain homogenate” value on MAO-B (ratio to 18F-1) is more than 10 fold.
